From ChEMBL document CHEMBL5532639, “Heterocyclic pyrimidine derivatives as promising antibacterial agents” (Eur J Med Chem, 2023) come the findings set out here.

Experiment [1] relates to Staphylococcus hominis. Briefly: Antibacterial activity against Staphylococcus hominis. The experiment is classed as functional.
The subject of experiment [2] is Acinetobacter sp. Briefly: Antibacterial activity against Acinetobacter sp. The experiment is classed as functional.
The test system of experiment [3] is Staphylococcus haemolyticus. Briefly: Antibacterial activity against Staphylococcus haemolyticus clinical isolates assessed as bacterial growth inhibition measured after 16 to 24 hrs by broth microdilution assay. As to conditions: time 16-24 hrs. Type of experiment: functional. On the technique in general: In broth dilution the organism is exposed to a series of concentrations in liquid medium.

For experiment [4], the system named is Staphylococcus epidermidis. Briefly: Antibacterial activity against Staphylococcus epidermidis assessed as reduction in microbial growth after 24 hrs by CLSI based microdilution method. The experiment is classed as functional.
The test system of experiment [5] is Staphylococcus cohnii. Briefly: Antibacterial activity against Staphylococcus cohnii. Type of experiment: functional.
In experiment [6] the test system is Micrococcus luteus. Briefly: Antibacterial activity against Micrococcus luteus assessed as bacterial growth inhibition by paper disc diffusion assay. Type of experiment: functional.
In experiment [7] the test system is Moraxella catarrhalis. Briefly: Antibacterial activity against Moraxella catarrhalis assessed as reduction in bacterial growth by broth microdilution method. Type of experiment: functional.
Experiment [8] has as its system Staphylococcus epidermidis. Briefly: Antibacterial activity against Staphylococcus epidermidis assessed as reduction in bacterial growth measured after 24 hrs by broth microdilution method. Type of experiment: functional.
The subject of experiment [9] is Corynebacterium glutamicum. Briefly: Antibacterial activity against Corynebacterium glutamicum ATCC 13032 cultured in MHB medium assessed as no bacterial growth incubated at 20 degC for 24 hrs by microdilution susceptibility test. The experiment is classed as functional.
The subject of experiment [10] is Micrococcus luteus. Briefly: Antibacterial activity against Micrococcus luteus assessed as reduction in microbial growth. Type of experiment: functional.
For experiment [11], the system named is Staphylococcus xylosus. Briefly: Antibacterial activity against Staphylococcus xylosus assessed as reduction in bacterial growth. Type of experiment: functional.
For experiment [12], the system named is Arcanobacterium haemolyticum. Briefly: Antibacterial activity against Arcanobacterium haemolyticum. The experiment is classed as functional.
Experiment [13] has as its system Micrococcus sp. Briefly: Antibacterial activity against Micrococcus sp. Type of experiment: functional.
In experiment [14] the test system is Corynebacterium glutamicum. Briefly: Antibacterial activity against Corynebacterium glutamicum. The experiment is classed as functional.
Experiment [15] relates to Corynebacterium sp. Briefly: Antibacterial activity against Corynebacterium sp. Type of experiment: functional.
The subject of experiment [16] is Corynebacterium xerosis. Briefly: Antibacterial activity against Corynebacterium xerosis. Type of experiment: functional.
Experiment [17] has as its system Alcaligenes faecalis. Briefly: Antibacterial activity against Alcaligenes faecalis. The experiment is classed as functional.
The test system of experiment [18] is Staphylococcus aureus. Briefly: Antibacterial activity against Staphylococcus aureus assessed as reduction in bacterial growth incubated for 16 to 20 hrs by Mueller-Hinton broth based two-fold serial dilution method. Type of experiment: functional. As to conditions: time 16-20 hrs.
The subject of experiment [19] is Klebsiella pneumoniae. Briefly: Antibacterial activity against Klebsiella pneumoniae assessed as reduction in bacterial growth incubated for 16 to 20 hrs by Mueller-Hinton broth based two-fold serial dilution method. As to conditions: time 16-20 hrs. The experiment is classed as functional.
Experiment [20] relates to Pseudomonas aeruginosa. Briefly: Antibacterial activity against Pseudomonas aeruginosa assessed as reduction in bacterial growth incubated for 24 hrs by broth microdilution method. Type of experiment: functional.
Experiment [21] concerns Streptococcus pyogenes. Briefly: Antibacterial activity against Streptococcus pyogenes assessed as reduction in microbial growth incubated for 24 hrs by broth micro-dilution method. The experiment is classed as functional.
In experiment [22] the test system is Escherichia coli. Briefly: Antibacterial activity against Escherichia coli assessed as reduction in bacterial growth incubated for 16 to 20 hrs by Mueller-Hinton broth based two-fold serial dilution method. The experiment is classed as functional. As to conditions: time 16-20 hrs.
The test system of experiment [23] is Bacillus subtilis. Briefly: Antibacterial activity against Bacillus subtilis assessed as inhibition of bacterial growth incubated for 4 to 20 hrs by resazurin based microplate reader analysis. The experiment is classed as functional. As to conditions: time 4-20 hrs. A general note: The colour change of resazurin is a common sign of viable cells or microbes.

In experiment [24] the test system is Pseudomonas aeruginosa. Briefly: Antibacterial activity against Pseudomonas aeruginosa assessed as inhibition of bacterial growth incubated for 4 to 20 hrs by resazurin based microplate reader analysis. The experiment is classed as functional. As to conditions: time 4-20 hrs.
Experiment [25] has as its system Staphylococcus aureus. Briefly: Antibacterial activity against Staphylococcus aureus assessed as inhibition of bacterial growth incubated for 4 to 20 hrs by resazurin based microplate reader analysis. The experiment is classed as functional. As to conditions: time 4-20 hrs.
In experiment [26] the test system is Escherichia coli. Briefly: Antibacterial activity against Escherichia coli assessed as inhibition of bacterial growth incubated for 4 to 20 hrs by resazurin based microplate reader analysis. The experiment is classed as functional. Conditions: time 4-20 hrs.
The test system of experiment [27] is Staphylococcus aureus. Briefly: microbe, parasite or virus in culture. As to conditions: ATCC 25923, 24 h.
Description: Antibacterial activity against Staphylococcus aureus ATCC 25923 assessed as reduction in bacterial growth measured after 24 hrs by Mueller-Hinton broth assay
In experiment [28] the test system is Bacillus subtilis. Briefly: Antibacterial activity against Bacillus subtilis ATCC 465 assessed as reduction in bacterial growth measured after 24 hrs by Mueller-Hinton broth assay. The experiment is classed as functional.
The subject of experiment [29] is Salmonella typhimurium. Briefly: Antibacterial activity against Salmonella typhimurium DT104 assessed as bacterial growth inhibition by measuring zone of inhibition at 50 ug/ml by agar cup diffusion assay. Type of experiment: functional, Salmonella enterica subsp. enterica serovar Typhimurium. As to conditions: Salmonella enterica, read-out: IZ.
The subject of experiment [30] is Staphylococcus aureus. Briefly: Antibacterial activity against Staphylococcus aureus assessed as bacterial growth inhibition by measuring zone of inhibition at 50 ug/ml by agar cup diffusion assay. The experiment is classed as functional. As to conditions: read-out: IZ.
For experiment [31], the system named is Bacillus subtilis. Briefly: Antibacterial activity against Bacillus subtilis assessed as bacterial growth inhibition by measuring zone of inhibition at 50 ug/ml by agar cup diffusion assay. The experiment is classed as functional. As to conditions: read-out: IZ.
For experiment [32], the system named is Escherichia coli. Briefly: Antibacterial activity against Escherichia coli assessed as bacterial growth inhibition by measuring zone of inhibition at 50 ug/ml by agar cup diffusion assay. The experiment is classed as functional. As to conditions: read-out: IZ.
Experiment [33] concerns Staphylococcus aureus. Briefly: Antibacterial activity against Staphylococcus aureus assessed as reduction in microbial growth by CLSI based broth microdilution method. The experiment is classed as functional.
The subject of experiment [34] is Pseudomonas aeruginosa. Briefly: Antibacterial activity against Pseudomonas aeruginosa assessed as reduction in bacterial growth by broth microdilution method. The experiment is classed as functional.
In experiment [35] the test system is Escherichia coli. Briefly: Antibacterial activity against Escherichia coli assessed as bacterial growth inhibition incubated for 18 hrs by CLSI protocol based Mueller-Hinton broth assay. The experiment is classed as functional.
The subject of experiment [36] is Streptococcus pyogenes. Briefly: Antibacterial activity against Streptococcus pyogenes assessed as reduction in microbial growth by CLSI based broth microdilution method. Type of experiment: functional.

≈ marks a conversion by molar mass, not a printed value.

Consider `Clc1ccc(C(Cc2ccccc2)c2c(Cl)nc(N3CCNCC3)nc2Cl)cc1` (stereo not drawn), for which the MIC in [1] stood at 100 µg/mL (≈ 223 µM); in experiment [2], 50 µg/mL (≈ 112 µM); in experiment [3], 100 µg/mL (≈ 223 µM); in experiment [4], 100 µg/mL; in [5], 100 µg/mL (≈ 223 µM); in experiment [6], 100 µg/mL (≈ 223 µM). In addition, the MIC in experiment [7] worked out at 100 µg/mL (≈ 223 µM); in experiment [8], 100 µg/mL (≈ 223 µM); in experiment [9], 50 µg/mL (≈ 112 µM); in experiment [10] it was 100 µg/mL; in [11], 100 µg/mL (≈ 223 µM); in experiment [12], 10 µg/mL (≈ 22.3 µM). In addition, the MIC in experiment [13] was 100 µg/mL (≈ 223 µM); in experiment [14] it was 100 µg/mL (≈ 223 µM); in experiment [15] it was 100 µg/mL (≈ 223 µM); in experiment [16], 30 µg/mL (≈ 67 µM); in experiment [17], more than 500 µg/mL.

Turning to `Nc1c(-c2nc3ccccc3s2)c(-c2ccc(Cl)cc2)nc2nc(N/N=C/c3cccc(Cl)c3)[nH]c(=O)c12`, the MIC in experiment [18] came out at 25 µg/mL (≈ 44.8 µM); in [19], 50 µg/mL (≈ 89.5 µM); in experiment [20] it was 50 µg/mL (≈ 89.5 µM); in experiment [21] it was 25 µg/mL; in experiment [22], 25 µg/mL (≈ 44.8 µM).

In the case of `Nc1c(-c2nc3ccccc3s2)c(-c2ccc(Cl)cc2)nc2nc(N/N=C/c3cccc(F)c3)[nH]c(=O)c12`, the MIC stood at 12.5 µg/mL (≈ 23.1 µM) in [18]; 25 µg/mL (≈ 46.1 µM) in experiment [19]; 25 µg/mL (≈ 46.1 µM) in [20]; 12.5 µg/mL in experiment [21]; 25 µg/mL (≈ 46.1 µM) in experiment [22].

In the case of `Clc1ccc(C(Cc2cccc(Cl)c2)c2c(Cl)nc(N3CCNCC3)nc2Cl)cc1` (stereo not drawn), the MIC in experiment [1] was found to be 75 µg/mL (≈ 156 µM); in experiment [2], 30 µg/mL (≈ 62.2 µM); in experiment [3] it was 50 µg/mL (≈ 104 µM); in [4], 75 µg/mL; in [5], 75 µg/mL (≈ 156 µM); in experiment [6], 75 µg/mL (≈ 156 µM). Besides, the MIC amounted to 50 µg/mL (≈ 104 µM) in experiment [7]; 75 µg/mL (≈ 156 µM) in experiment [8]; 50 µg/mL (≈ 104 µM) in experiment [9]; 100 µg/mL in [10]; 100 µg/mL (≈ 207 µM) in [11]; 10 µg/mL (≈ 20.7 µM) in [12]. Further, the MIC in experiment [13] is 75 µg/mL (≈ 156 µM); in experiment [14], 50 µg/mL (≈ 104 µM); in experiment [15], 75 µg/mL (≈ 156 µM); in [16], 30 µg/mL (≈ 62.2 µM); in experiment [17], more than 500 µg/mL.

As for `Cc1nc(NC(=O)c2cc(C(F)(F)F)cc(C(F)(F)F)c2)c2c(C(F)(F)F)cc(-c3ccccc3)nc2n1`, the MIC came to 12.5 µg/mL (≈ 23 µM) in [23], 50 µg/mL (≈ 91.8 µM) in experiment [24], 12.5 µg/mL (≈ 23 µM) in [25] and 50 µg/mL (≈ 91.8 µM) in experiment [26].

On to `Nc1nc(Cl)c(C(Cc2ccccc2)c2ccc(Cl)cc2)c(Cl)n1` (stereo not drawn), for which the MIC in [1] is 100 µg/mL (≈ 264 µM); in experiment [2], more than 500 µg/mL; in experiment [3] it was 100 µg/mL (≈ 264 µM); in [4], 100 µg/mL; in [5], 100 µg/mL (≈ 264 µM); in experiment [6] it was 100 µg/mL (≈ 264 µM). Further, the MIC in [7] is 500 µg/mL (≈ 1320 µM); in [8], 100 µg/mL (≈ 264 µM); in experiment [9], 100 µg/mL (≈ 264 µM); in [10], 100 µg/mL; in [11], 100 µg/mL (≈ 264 µM); in [12], 10 µg/mL (≈ 26.4 µM). Moreover, the MIC was 100 µg/mL (≈ 264 µM) in experiment [13]; 100 µg/mL (≈ 264 µM) in [14]; 100 µg/mL (≈ 264 µM) in experiment [15]; 30 µg/mL (≈ 79.2 µM) in experiment [16]; more than 500 µg/mL in [17].

In the case of `N#Cc1nc2[nH]c(=O)[nH]c(=O)c2c(-c2ccccc2)c1N`, the MIC worked out at 8 µg/mL (≈ 28.6 µM) in [27] and 2 µg/mL (≈ 7.16 µM) in [28].

Regarding `O=C(CSc1nnc(-c2cccnc2N2CCOCC2)o1)Nc1nc(-c2ccc(Cl)cc2Cl)cc(-c2cc(F)c(Cl)cc2Cl)n1`, the zone of inhibition at 50 µg/mL in experiment [29] stood at 12 mm; in [30] it was 13 mm; in experiment [31], 9 mm; in experiment [32] it was 12 mm.

With `O=[N+]([O-])c1ccc(Nc2nc(Nc3ccc(S(=O)(=O)Nc4ncccn4)cc3)nc(N3CCCCC3)n2)cc1`, the MIC in [33] is 100 µg/mL; in experiment [34], 50 µg/mL (≈ 91.1 µM); in experiment [35], 25 µg/mL (≈ 45.6 µM); in [36], 100 µg/mL.

Regarding `CCOC(=O)c1ccc(Nc2nc(Nc3ccc(S(=O)(=O)Nc4ncccn4)cc3)nc(N3CCCCC3)n2)cc1`, the MIC in experiment [33] was 100 µg/mL; in experiment [34] it was 25 µg/mL (≈ 43.4 µM); in experiment [35], 25 µg/mL (≈ 43.4 µM); in experiment [36], 100 µg/mL.

With `O=C(CSc1nnc(-c2cccnc2N2CCOCC2)o1)Nc1nc(-c2ccc(Cl)cc2)cc(-c2cc(F)c(Cl)cc2Cl)n1`, the zone of inhibition at 50 µg/mL was 9 mm in [29], 13 mm in [30], 10 mm in experiment [31] and 10 mm in [32].
